The record followed here is PMC5740388, “In Vitro Antibacterial Properties of Cefiderocol, a Novel Siderophore Cephalosporin, against Gram-Negative Bacteria” (Antimicrobial Agents and Chemotherapy, 2017).

What all share (assay type): binding
Test [1] addresses T1, PBP2 of K. pneumoniae SR22291 (Klebsiella pneumoniae, UniProt A6T696).
T1 construct: gene mrdA
T1 sequence (A6T696 1-633): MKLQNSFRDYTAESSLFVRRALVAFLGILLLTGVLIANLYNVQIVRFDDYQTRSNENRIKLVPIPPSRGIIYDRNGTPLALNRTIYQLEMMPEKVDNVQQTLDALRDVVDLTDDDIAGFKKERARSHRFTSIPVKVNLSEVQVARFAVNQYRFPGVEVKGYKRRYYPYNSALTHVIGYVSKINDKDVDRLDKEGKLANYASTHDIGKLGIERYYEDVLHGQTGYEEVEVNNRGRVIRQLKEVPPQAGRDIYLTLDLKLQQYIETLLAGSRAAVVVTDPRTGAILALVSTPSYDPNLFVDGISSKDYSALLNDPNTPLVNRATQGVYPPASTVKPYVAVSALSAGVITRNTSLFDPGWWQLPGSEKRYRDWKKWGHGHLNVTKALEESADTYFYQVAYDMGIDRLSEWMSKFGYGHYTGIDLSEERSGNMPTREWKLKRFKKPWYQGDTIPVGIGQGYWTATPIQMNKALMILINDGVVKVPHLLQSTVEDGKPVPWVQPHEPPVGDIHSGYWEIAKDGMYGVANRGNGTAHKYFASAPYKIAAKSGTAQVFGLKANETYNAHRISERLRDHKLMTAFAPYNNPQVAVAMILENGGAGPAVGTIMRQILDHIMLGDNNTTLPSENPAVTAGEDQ
The test can be described thus: competition with […]benzylpenicillin for PBPs. To be noted: covalent.

In test [2] the target is T2, PBP3 of A. baumannii ATCC 17978 (Acinetobacter baumannii, UniProt A0ABX6CK25).
T2 construct: gene ftsI
T2 sequence (A0ABX6CK25 1-610): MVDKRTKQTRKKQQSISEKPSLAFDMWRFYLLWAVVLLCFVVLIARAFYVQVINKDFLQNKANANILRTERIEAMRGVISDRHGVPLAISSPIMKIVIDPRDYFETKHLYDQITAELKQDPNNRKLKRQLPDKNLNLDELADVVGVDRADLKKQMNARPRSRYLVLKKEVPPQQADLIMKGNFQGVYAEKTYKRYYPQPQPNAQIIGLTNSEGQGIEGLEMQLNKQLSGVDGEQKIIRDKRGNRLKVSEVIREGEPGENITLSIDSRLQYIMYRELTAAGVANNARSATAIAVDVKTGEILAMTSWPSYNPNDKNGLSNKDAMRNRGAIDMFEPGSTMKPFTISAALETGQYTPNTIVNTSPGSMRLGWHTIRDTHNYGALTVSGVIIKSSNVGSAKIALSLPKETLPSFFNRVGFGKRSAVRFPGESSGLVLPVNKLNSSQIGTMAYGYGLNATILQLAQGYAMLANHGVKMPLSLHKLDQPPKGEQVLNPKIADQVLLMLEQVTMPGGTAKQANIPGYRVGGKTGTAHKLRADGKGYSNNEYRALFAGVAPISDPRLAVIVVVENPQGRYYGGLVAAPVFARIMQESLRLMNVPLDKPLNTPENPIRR
Briefly: competition with Bocillin FL for PBPs. To be noted: covalent. From the text:
competition with Bocillin FL for PBPs on PBP3 of A. baumannii ATCC 17978

Test [3] addresses T3, PBP1b of E. coli NIHJ JC-2 (Escherichia coli, UniProt P02919).
T3 construct: gene mrcB
The test can be described thus: competition with […]benzylpenicillin for PBPs. To be noted: covalent.

The target of test [4] is T4, PBP2 of P. aeruginosa ATCC 27853 (Pseudomonas aeruginosa, UniProt Q9X6V3).
T4 construct: gene pbpA
T4 sequence (Q9X6V3 1-646): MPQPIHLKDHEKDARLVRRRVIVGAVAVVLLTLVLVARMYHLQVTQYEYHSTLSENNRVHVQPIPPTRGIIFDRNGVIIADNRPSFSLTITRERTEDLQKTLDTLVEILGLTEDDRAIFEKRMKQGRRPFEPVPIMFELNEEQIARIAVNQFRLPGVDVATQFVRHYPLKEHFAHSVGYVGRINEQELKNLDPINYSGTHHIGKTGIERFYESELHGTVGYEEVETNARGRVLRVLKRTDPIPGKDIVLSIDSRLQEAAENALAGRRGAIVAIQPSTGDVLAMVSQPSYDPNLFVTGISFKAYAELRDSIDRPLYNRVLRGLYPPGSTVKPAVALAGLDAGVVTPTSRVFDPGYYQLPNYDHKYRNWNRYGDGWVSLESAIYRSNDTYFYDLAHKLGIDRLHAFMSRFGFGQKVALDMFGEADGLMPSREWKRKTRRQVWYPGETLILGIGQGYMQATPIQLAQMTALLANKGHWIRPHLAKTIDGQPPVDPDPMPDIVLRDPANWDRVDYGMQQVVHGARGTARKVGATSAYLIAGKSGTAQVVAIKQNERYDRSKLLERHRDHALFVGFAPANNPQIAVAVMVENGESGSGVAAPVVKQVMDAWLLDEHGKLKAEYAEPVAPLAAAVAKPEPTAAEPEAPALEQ
The test can be described thus: competition with […]benzylpenicillin for PBPs. The following applies: covalent; read-out: IC50 (μg/ml) / E. coli NIHJ JC-2 / Ceftazidime.

Test [5] deals with T5, PBP3 of E. coli NIHJ JC-2 (Escherichia coli, UniProt P0AD68).
T5 construct: gene ftsI
T5 sequence (P0AD68 1-577): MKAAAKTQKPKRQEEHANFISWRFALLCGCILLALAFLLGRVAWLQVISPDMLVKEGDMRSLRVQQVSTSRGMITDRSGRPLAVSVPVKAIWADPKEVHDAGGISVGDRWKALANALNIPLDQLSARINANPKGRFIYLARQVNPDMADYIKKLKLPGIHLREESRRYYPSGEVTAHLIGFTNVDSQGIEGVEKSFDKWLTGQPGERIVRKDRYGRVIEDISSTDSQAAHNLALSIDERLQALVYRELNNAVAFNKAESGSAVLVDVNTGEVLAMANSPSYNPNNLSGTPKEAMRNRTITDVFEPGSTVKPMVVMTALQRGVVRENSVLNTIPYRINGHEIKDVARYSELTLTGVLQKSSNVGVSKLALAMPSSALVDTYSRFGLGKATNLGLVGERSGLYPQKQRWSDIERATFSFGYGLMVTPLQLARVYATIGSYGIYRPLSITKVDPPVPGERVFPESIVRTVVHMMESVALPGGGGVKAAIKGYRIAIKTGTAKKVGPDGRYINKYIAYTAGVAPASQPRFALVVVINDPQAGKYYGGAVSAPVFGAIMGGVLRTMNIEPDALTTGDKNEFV
Briefly: competition with […]benzylpenicillin for PBPs. To be noted: covalent.

Test [6] has as its target T6, PBP4 of K. pneumoniae SR22291 (Klebsiella pneumoniae, UniProt A6TEK1).
T6 construct: gene dacB
T6 sequence (A6TEK1 21-477): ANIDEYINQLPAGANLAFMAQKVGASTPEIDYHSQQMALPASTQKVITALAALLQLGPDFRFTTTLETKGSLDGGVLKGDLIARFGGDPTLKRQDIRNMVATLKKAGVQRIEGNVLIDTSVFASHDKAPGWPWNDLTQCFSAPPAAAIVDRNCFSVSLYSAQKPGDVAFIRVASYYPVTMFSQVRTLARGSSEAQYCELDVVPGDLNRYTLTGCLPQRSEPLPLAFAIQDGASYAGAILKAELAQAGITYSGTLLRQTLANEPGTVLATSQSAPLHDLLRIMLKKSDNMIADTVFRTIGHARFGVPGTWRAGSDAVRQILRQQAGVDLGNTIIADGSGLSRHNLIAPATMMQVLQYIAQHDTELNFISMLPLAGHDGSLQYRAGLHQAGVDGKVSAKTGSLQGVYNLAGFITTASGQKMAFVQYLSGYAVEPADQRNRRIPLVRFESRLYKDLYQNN
Briefly: competition with […]benzylpenicillin for PBPs. The following applies: covalent.

[7] abbreviates: read-out: IC50 (μg/ml) / K. pneumoniae SR22291 / Cefiderocol (converted).
Where [8] appears, read: read-out: IC50 (μg/ml) / E. coli NIHJ JC-2 / Cefiderocol (converted).
[9] abbreviates: read-out: IC50 (μg/ml) / K. pneumoniae SR22291 / Ceftazidime (converted).

Like-named read-outs stand apart in the source and are kept apart here.

T3 sequence (P02919 whole entry): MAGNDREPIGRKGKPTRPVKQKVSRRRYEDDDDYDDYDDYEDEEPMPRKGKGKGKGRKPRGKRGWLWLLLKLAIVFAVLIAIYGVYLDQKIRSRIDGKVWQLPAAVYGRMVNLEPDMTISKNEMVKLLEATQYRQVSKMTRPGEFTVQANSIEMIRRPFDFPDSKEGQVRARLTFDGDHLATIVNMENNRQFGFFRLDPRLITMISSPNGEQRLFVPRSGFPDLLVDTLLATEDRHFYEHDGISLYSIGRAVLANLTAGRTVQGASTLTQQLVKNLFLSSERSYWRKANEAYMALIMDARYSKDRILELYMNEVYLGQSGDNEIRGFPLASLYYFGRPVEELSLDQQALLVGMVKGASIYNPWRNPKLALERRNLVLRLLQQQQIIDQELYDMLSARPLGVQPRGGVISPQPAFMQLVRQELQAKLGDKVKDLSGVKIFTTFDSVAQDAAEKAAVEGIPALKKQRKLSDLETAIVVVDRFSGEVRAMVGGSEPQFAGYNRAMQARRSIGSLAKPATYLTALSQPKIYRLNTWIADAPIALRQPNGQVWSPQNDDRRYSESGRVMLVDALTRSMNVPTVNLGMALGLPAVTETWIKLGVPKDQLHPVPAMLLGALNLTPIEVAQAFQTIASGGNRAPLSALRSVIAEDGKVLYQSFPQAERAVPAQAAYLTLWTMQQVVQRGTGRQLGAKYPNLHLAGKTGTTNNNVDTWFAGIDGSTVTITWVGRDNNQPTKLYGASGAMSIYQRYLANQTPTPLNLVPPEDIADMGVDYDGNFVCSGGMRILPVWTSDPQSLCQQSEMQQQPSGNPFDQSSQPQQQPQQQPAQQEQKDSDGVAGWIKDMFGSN

Turning to `CC(C)(O/N=C(\C(=O)N[C@@H]1C(=O)N2C(C(=O)[O-])=C(C[N+]3(CCNC(=O)c4ccc(O)c(O)c4Cl)CCCC3)CS[C@H]12)c1csc(N)n1)C(=O)O` [cefiderocol], the IC50 was 83.8 nM in test [1] (setting [7]); 891 nM in test [2] (read-out: IC50 (μg/ml) / A. baumannii ATCC 17978 ^a / Cefiderocol (converted)); 4480 nM in test [3] (setting [8]); greater than 5320 nM in test [4]; 53.2 nM in test [5] (setting [8]); 372 nM in test [6] (setting [7]).
Consider `CC(C)(O/N=C(\C(=O)N[C@@H]1C(=O)N2C(C(=O)[O-])=C(C[n+]3ccccc3)CS[C@H]12)c1csc(N)n1)C(=O)O` [ceftazidime], for which the IC50 in test [1] (setting [9]) was 750 nM; in test [2] (read-out: IC50 (μg/ml) / A. baumannii ATCC 17978 ^a / Ceftazidime (converted)) it was 3260 nM; in test [3] (read-out: IC50 (μg/ml) / E. coli NIHJ JC-2 / Ceftazidime), greater than 7320 nM; in test [4], greater than 7320 nM; in test [5] (read-out: IC50 (μg/ml) / E. coli NIHJ JC-2 / Ceftazidime (converted)) it was 823 nM; in test [6] (setting [9]), 6590 nM.
